The values below come from patent US5824533A, “Orpinomyces xylanase proteins and coding sequences” (University of Georgia Research Foundation, Inc., priority 1995, dated 1998).

This test concerns Orpinomyces sp. strain PC-2 endoxylanase XynA-1 (purified native enzyme, 29 kDa). Description: Effect of reagents on purified endoxylanase activity (residual activity on oat spelt xylan). The format is biochemical. As for the experimental part:
Enzyme assays: All enzyme assays were carried out in duplicate and in 50 mM piperazine/HCl buffer at pH 5.5 and 40° C. unless otherwise stated.
a. Xylanase activity was assayed by mixing a 0.2 ml aliquot of diluted enzyme with 0.4 ml buffer containing 1.0% (w/v) oat spelt xylan (Sigma Chemical Co., St. Louis, Mo.), preheated to 40° C. After 15 min at 40° C., the reaction was terminated by the addition of 1.2 ml of 3,5-dinitrosalicylic acid (DNS) (Miller, 1959), followed by 0.2 ml of 2.5N NaOH to dissolve the residual water-insoluble xylan. The reaction tube was then placed in boiling water for 5 min before determining the absorbance at 550 nm (A550 nm). Xylose was used as the standard.
The effects of various metal ions and reagents on xylanase activity were determined in 50 mM piperazine-HCl, pH 5.5. The enzyme and metal ions or reagents (1 and 3 mM) were preincubated at 22° C. for 10 min; residual activities were measured at 40° C.

Setting [1] is: reagent 1 mM, preincubated 22° C. 10 min, residual activity at 40° C., 50 mM piperazine-HCl pH 5.5, control without reagent = 100%.
[2] abbreviates: reagent 3 mM, preincubated 22° C. 10 min, residual activity at 40° C., 50 mM piperazine-HCl pH 5.5, control without reagent = 100%.
Where [3] appears, read: reagent 1 and 3 mM, 50 mM piperazine-HCl pH 5.5.

Each structure is given as a SMILES string. “And” between values parts separate entries of the source, which are not always exact repeats. Equal entries are not always repeated. “Also recorded” adds a separate entry of the source.

For the compound `O=[N+]([O-])c1ccc(O)c(CBr)c1` [2-Hydroxy-5-nitroxyl-5-nitrobenzyl-bromide], the “Relative activity (%)” value is, setting by setting: under setting [1], 85.5%; under setting [2], 63.3%. Also, the “Effect on xylanase activity (in words)” value under setting [3] is “inhibitory”.
With `O=C(O)CN(CCN(CC(=O)O)CC(=O)O)CC(=O)O` [EDTA], under “pH 5.5”, the “Effect on xylanase activity (in words)” value is “do not significantly effect xylanase activity”; the “Relative activity (%)” value was 96.3% and 93.7%.
`O=C(O)c1cc[c]([Hg+])cc1.[OH-]` [Hydroxymercuribenzoate, p-hydroxymercuribenzoate]: where the note is “reagent 1 mM”, the “Effect on xylanase activity (in words)” value is given as “total inactivation”. For the same compound, the “Relative activity (%)” value is, setting by setting: under setting [1], 0%; under setting [2], 0%.
Consider `O=C1CCC(=O)N1Br` [N-Bromosuccinimide], for which the “Effect on xylanase activity (in words)” value (reagent 1 mM) is recorded as “total inactivation; also recorded: completely inhibited”. Also, the “Relative activity (%)” value is, setting by setting: under setting [1], 0%; under setting [2], 0%.
`OCCS` [β-Mercaptoethanol]: the “Relative activity (%)” value by setting is: under setting [1], 96.7%; under setting [2], 95.4%. Moreover, the “Effect on xylanase activity (in words)” value under setting [3] is “do not significantly effect xylanase activity”.
